Data on 22 compounds can be found in patent US7244722B2, “Amino-substituted 1H-pyrazin-2-ones and 1H-quinoxalin-2-ones” (Biovitrum AB, priority 2002, dated 2007).

Counter-ions that a name gives are not always drawn.

The target of one data set is T1, human 5-HT2A receptor (Homo sapiens, UniProt P28223).
T1 construct: expressed in transfected cells
Nature of the data set: 5-HT2A receptor affinity assay: competition with 3H-labeled LSD on membranes of transfected CHO cells. Particulars: displacement of 3H-LSD; membranes from transfected CHO cell line stably expressing the human 5-HT2A receptor; non-specific binding defined with mianserin (5 μM). As to the method: The 5-HT2A receptor affinity of compounds in the Examples was determined in competition experiments, where the ability of each compound in serial dilution to displace ^3H-labeled lysergic diethyl amide (LSD), bound to membranes prepared from a transfected CHO cell line stably expressing the human 5-HT2A receptor protein, was measured after rapid filtration through glass fiber filters. Non-specific binding was defined using mianserin (5 μM). The 5-HT2A receptor affinity values are expressed as Ki values.
For orientation: In a radioligand displacement assay an active substance lowers the binding of a labelled ligand.

T1 sequence (P28223 whole entry): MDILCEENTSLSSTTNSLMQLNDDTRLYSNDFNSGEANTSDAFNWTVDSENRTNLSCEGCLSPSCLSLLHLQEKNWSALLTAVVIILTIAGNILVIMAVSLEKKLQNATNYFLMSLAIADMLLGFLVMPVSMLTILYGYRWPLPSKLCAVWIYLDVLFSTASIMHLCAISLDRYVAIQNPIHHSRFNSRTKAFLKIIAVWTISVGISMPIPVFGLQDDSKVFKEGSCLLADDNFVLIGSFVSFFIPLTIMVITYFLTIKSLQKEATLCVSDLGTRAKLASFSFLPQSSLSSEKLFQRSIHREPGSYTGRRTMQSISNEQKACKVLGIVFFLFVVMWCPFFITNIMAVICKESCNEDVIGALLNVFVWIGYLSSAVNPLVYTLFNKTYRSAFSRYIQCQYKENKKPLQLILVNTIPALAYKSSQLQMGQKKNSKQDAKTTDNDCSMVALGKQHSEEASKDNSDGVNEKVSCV

In the case of `CN(C)c1cccc(OCCn2ccnc(N3CCNCC3)c2=O)c1` (as salt: fumarate) [Example 20, 1-{2-[3-(N,N-Dimethylamino)phenoxy]ethyl}-3-(1-piperazinyl)-pyrazin-2(1H)-one], the melting point (as a rule, the temperature, or range, at which the solid turns liquid) was in the range of 180 to 191 °C. For `O=c1c(N2CCNCC2)nccn1CCOc1ccc([N+](=O)[O-])cc1F` (as salt: hydrochloride) [Example 1, 1-[2-(2-Fluoro-4-nitrophenoxy)ethyl]-3-(1-piperazinyl)-2(1H)-pyrazinone], the melting point lay in the range of 105 to 108 °C.

Take `O=c1c(N2CCNCC2)nccn1CCOc1cc(F)c(F)cc1F` (as salt: hydrochloride) [Example 3, 3-(1-Piperazinyl)-1-[2-(2,4,5-trifluorophenoxy)ethyl]-2(1H)-pyrazinone]: the melting point lay within 193 to 195 °C. Take `O=c1c(N2CCNCC2)nccn1CCOc1c(F)c(F)cc(F)c1F` (as salt: hydrochloride) [Example 4, 3-(1-Piperazinyl)-1-[2-(2,3,5,6-tetrafluorophenoxy)ethyl]-2(1H)-pyrazinone]: the melting point was 196 to 198 °C (dec.). For `O=c1c(N2CCNCC2)nccn1CCOc1noc2ccccc12` (as salt: hydrochloride) [Example 9, 1-[2-(1,2-Benzisoxazol-3-yloxy)ethyl]-3-(1-piperazinyl)-2(1H)-pyrazinone], the melting point fell in the range of 174 to 176 °C. In turn, `O=c1c(N2CCN(Cc3ccccc3)CC2)nccn1CCOc1cc(F)c(F)cc1F` (as salt: hydrochloride) [Example 63, 3-(4-Benzylpiperazin-1-yl)-1-[2-(2,4,5-trifluorophenoxy)ethyl]pyrazin-2(1H)-one] yielded a melting point of 214 to 214.5 °C. `C=CCc1ccc(OCCn2ccnc(N3CCNCC3)c2=O)c(OC)c1` (as salt: maleate) [Example 65, 1-[2-(4-Allyl-2-methoxyphenoxy)ethyl]-3-piperazin-1-ylpyrazin-2(1H)-one] registered a melting point of 158 to 160 °C. As for `O=c1c(N2CCNCC2)nccn1CCCCOc1cc(F)c(F)cc1F` (as salt: trifluoroacetate) [Example 58, 1-[4-(2,4,5-Trifluorophenoxy)butyl]-3-(1-piperazinyl)-2(1H)-pyrazinone], the melting point was 113.4 to 116.6 °C (dec.). Same read-out and setting: as for `O=c1c(N2CCNCC2)nccn1CCCOc1cc(F)c(F)cc1F` (as salt: trifluoroacetate) [Example 59, 1-[3-(2,4,5-Trifluorophenoxy)propyl]-3-(1-piperazinyl)-2(1H)-pyrazinone], the figure is 100.3 to 100.9 °C (dec.). With `CC(c1ccccc1)N1CCN(c2nccn(CCOc3cc(F)c(F)cc3F)c2=O)CC1` (racemic) (as salt: hydrochloride) [Example 60, 3-[4-(1-Phenylethyl)piperazin-1-yl]-1-[2-(2,4,5-trifluorophenoxy)ethyl]pyrazin-2(1H)-one], the melting point fell in the range of 137 to 139 °C. Regarding `O=c1ccc2ccc(OCCn3ccnc(N4CCNCC4)c3=O)cc2o1` [Example 2, 1-{2-[(2-Oxo-2H-chromen-7-yl)oxy]ethyl}-3-(1-piperazinyl)-2(1H)-pyrazinone], affinity at human 5-HT2A receptor was put at a Ki of 152 nM. Consider `O=c1c(N2CCNCC2)nccn1CCOc1cc(F)c(F)cc1F` [Example 3, 3-(1-Piperazinyl)-1-[2-(2,4,5-trifluorophenoxy)ethyl]-2(1H)-pyrazinone], for which, on human 5-HT2A receptor, affinity was put at a Ki of 2.2 nM.

Compound `N#Cc1cccc(OCCn2ccnc(N3CCNCC3)c2=O)c1` [Example 7, 1-[2-(3-Cyanophenoxy)ethyl]-3-(1-piperazinyl)-2(1H)-pyrazinone] had a melting point of 49 to 52 °C. Turning to `CCCCOc1cccc(OCCn2ccnc(N3CCNCC3)c2=O)c1` [Example 11, 1-[2-(3-n-Butyloxyphenoxy)ethyl]-3-(1-piperazinyl)-2(1H)-pyrazinone], affinity at human 5-HT2A receptor was put at a Ki of 2.5 nM. With `O=c1c(N2CCNCC2)nccn1CCOc1ccc(F)c(F)c1F` [Example 13, 3-(1-Piperazinyl)-1-[2-(2,3,4-trifluorophenoxy)ethyl]-2(1H)-pyrazinone], the Ki (usually the equilibrium dissociation constant of an inhibitor or competing ligand from its target) on human 5-HT2A receptor is 29 nM. In turn, `O=c1c(N2CCNCC2)nccn1CCOc1cccc([N+](=O)[O-])c1` [Example 23, 1-[2-(3-Nitrophenoxy)ethyl]-3-(1-piperazinyl)-2(1H)-pyrazinone] registered a melting point of 171 °C. The same compound showed a Ki on human 5-HT2A receptor of 13 nM. In turn, `O=C(c1ccccc1)c1cccc(OCCn2ccnc(N3CCNCC3)c2=O)c1` [Example 24, 1-[2-(3-Benzoylphenoxy)ethyl]-3-(1-piperazinyl)-2(1H)-pyrazinone] gave a melting point of 69 to 70 °C. At human 5-HT2A receptor, this compound had a Ki of 3.6 nM. For `O=c1c(N2CCNCC2)nccn1CCOc1cc(F)cc(F)c1` [Example 25, 1-[2-(3,5-Difluorophenoxy)ethyl]-3-(1-piperazinyl)-2(1H)-pyrazinone], the melting point was 119 to 121 °C. `O=c1c(N2CCNCC2)nccn1CCOc1ccc(C(F)(F)F)cc1` [Example 29, 1-[2-(4-Trifluoromethylphenoxy)ethyl]-3-(1-piperazinyl)-2(1H)-pyrazinone] gave a Ki at human 5-HT2A receptor of 8 nM. Take `O=c1c(N2CCNCC2)nccn1CCOc1ccc(Oc2ccccc2)cc1` [Example 31, 1-[2-{4-Phenoxy-(phenoxy)}ethyl]-3-(1-piperazinyl)-2(1H)-pyrazinone]: the affinity on human 5-HT2A receptor corresponds to a Ki of 4.4 nM. Still for that read-out and setting: as for `O=c1c(N2CCN(CCc3ccccc3)CC2)nccn1CCOc1cc(F)c(F)cc1F` [Example 62, 3-[4-(2-Phenylethyl)piperazin-1-yl-]1-[2-(2,4,5-trifluorophenoxy)ethyl]pyrazin-2(1H)-one], the figure is 0.15 nM. In turn, `O=c1c(N2CCN(Cc3ccccc3)CC2)nccn1CCOc1cc(F)c(F)cc1F` [Example 63, 3-(4-Benzylpiperazin-1-yl)-1-[2-(2,4,5-trifluorophenoxy)ethyl]pyrazin-2(1H)-one] yielded an inhibition constant (Ki) on human 5-HT2A receptor of 1.4 nM.
